Measurements published in US11976057B2, “MrgX2 antagonists” (GlaxoSmithKline Intellectual Property Development Limited, priority 2020, dated 2024).

Target: T1, human MRGPRX2 (Homo sapiens, UniProt Q96LB1)
T1 sequence (Q96LB1 1-330): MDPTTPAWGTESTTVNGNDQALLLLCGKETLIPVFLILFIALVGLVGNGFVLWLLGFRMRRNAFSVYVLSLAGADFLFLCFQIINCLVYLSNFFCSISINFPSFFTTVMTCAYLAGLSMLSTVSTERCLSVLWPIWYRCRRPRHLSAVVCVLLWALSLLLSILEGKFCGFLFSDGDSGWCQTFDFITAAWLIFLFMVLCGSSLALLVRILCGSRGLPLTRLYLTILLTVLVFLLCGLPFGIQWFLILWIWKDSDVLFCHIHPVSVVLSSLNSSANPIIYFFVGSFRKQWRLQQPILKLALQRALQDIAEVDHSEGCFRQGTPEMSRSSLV
Test: Ca2+ mobilization assay (FLIPR TETRA): inhibition of Cortistatin-14 mediated MRGPRX2 activation

IC50 [nM] | SMILES
≤ 10 | C[C@@H](C(=O)Nc1ccc(Oc2ccc(F)cc2F)cn1)N1CCC(F)(F)[C@@H](c2c[nH]c(=O)c(CN3CCOCC3)c2)C1 [Example 227, (S)-2-((S)-4,4-difluoro-3-(5-(morpholinomethyl)-6-oxo-1,6-dihydropyridin-3-yl)piperidin-1-yl)-N-(5-(2,4-difluorophenoxy)pyridin-2-yl)propanamide]
100 to 3160 | CC(C(=O)Nc1ccc(CC2CC2)cn1)N1CCC(F)(F)[C@@H](c2ccc(=O)[nH]c2)C1 (stereo partly drawn) [Example 41, N-(5-(cyclopropyl-methyl)pyridin-2-yl)-2-((S)-4,4-difluoro-3-(6-oxo-1,6-dihydropyridin-3-yl)piperidin-1-yl)propanamide]
≤ 10 | C[C@@H](C(=O)Nc1ccc(Oc2ccc(F)cn2)cn1)[C@H]1CCC[C@@H](c2ccc(=O)[nH]c2)C1 [Example 283, (R)-N-(5((5-fluoropyridin-2-yl)oxy)pyridin-2-yl)-2-((1S,3R)-3-(6-oxo-1,6-dihydropyridin-3-yl)cyclohexyl)propanamide]
100 to 3160 | CC(C(=O)Nc1ccc(OC2CC3(CCC3)C2)cn1)N1CCC(F)(F)[C@@H](c2ccc(=O)[nH]c2)C1 (stereo partly drawn) [Example 73, 2-((S)-4,4-difluoro-3-(6-oxo-1,6-dihydropyridin-3-yl)piperidin-1-yl)-N-(5-(spiro[3.3]heptan-2-yloxy)pyridin-2-yl)propanamide]
10 to 100 | C[C@@H](C(=O)Nc1cnc(Oc2ccc(F)cc2CO)cn1)N1CCC(F)(F)[C@@H](c2ccc(=O)[nH]c2)C1 [Example 272]

Continued, compound first:

SMILES | IC50 [nM]
C[C@@H](C(=O)Nc1ccc(F)cn1)N1CCC(F)(F)C(c2c[nH]c(=O)c(C(N)C(F)(F)F)c2)C1 (stereo partly drawn) [Example 232, (2S)-2-(3-(5-(1-amino-2,2,2-trifluoroethyl)-6-oxo-1,6-dihydropyridin-3-yl)-4,4-difluoropiperidin-1-yl)-N-(5-fluoropyridin-2-yl)propanamide] | 100 to 3160
C[C@@H](C(=O)Nc1cc2ccccc2cn1)N1CCC(F)(F)[C@@H](c2ccc(=O)[nH]c2)C1 [Example 34, (S)-2-((S)-4,4-difluoro-3-(6-oxo-1,6-dihydropyridin-3-yl)piperidin-1-yl)-N-(isoquinolin-3-yl)propanamide] | 100 to 3160
Cc1cccc(-c2ccc(NC(=O)[C@H](C)N3CCC(F)(F)[C@@H](c4ccc(=O)[nH]c4)C3)nc2)n1 [Example 11, (S)-2-((S)-4,4-difluoro-3-(6-oxo-1,6-dihydropyridin-3-yl)piperidin-1-yl)-N-(6-methyl-[2,3′-bipyridin]-6′-yl)propanamide] | 100 to 3160
C[C@@H](C(=O)Nc1ccc(F)cn1)N1CCC(F)(F)[C@@H](c2cn(CC(F)(F)F)c(=O)cn2)C1 (single isomer, unassigned) [Example 103] | ≤ 10
CC(C(=O)Nc1ccc(Oc2ccccc2)cn1)N1CCC(F)(F)C(c2c[nH]c(=O)c(CN)c2)C1 (stereo not shown) [Example 202, 2-(3-(5-(aminomethyl)-6-oxo-1,6-dihydropyridin-3-yl)-4,4-difluoropiperidin-1-yl)-N-(5-phenoxypyridin-2-yl)propanamide] | ≤ 10
